The subject of data set [1] is GFP-labeled iPSC-derived human cortical glutamatergic neurons. The data set is described as follows: cells. The class given is cell-based.
A short description of the next data set: in vitro. The settings on record: PAMPA, PAMPA-BBB Pe. A general note: The PAMPA barrier holds no transporters, so it reflects passive diffusion.
The subject of data set [2] is glioblastoma multiforme (GBM). Particulars: mouse, in vivo, ip; cited from earlier work.
Data set [3] concerns GFP-labeled iPSC-derived human cortical glutamatergic neurons. The data set is described as follows: cells. Particulars: Neuron, 48 h, read-out: Viability AC50 (48 h).
A further data set relates to offspring neurogenesis. Particulars: rat, in vivo, po; cited from earlier work.
The subject of data set [4] is GFP-labeled iPSC-derived human cortical glutamatergic neurons.
Data set [5] has as its system human glial and neuroblastoma cell lines. Particulars: malignant glioma tumor cells; cited from earlier work.
The mark [6] stands for this setting: Homo sapiens, Neuron, rounded values, read-out: AC50 (neurite outgrowth inhibition).
The mark [7] stands for this setting: Homo sapiens, Neuron, total neurite length, 48 h treatment, read-out: TNL AC50 (48 h).
[8] abbreviates: Table S1, 60 min, room temperature, 0.05 mM.
Setting [9] is: Table 1, 60 min, room temperature, 0.05 mM.
Where [10] appears, read: Table S2: compounds exhibiting moderate to high PAMPA-BBB permeability.

Read-outs that look alike come from different tables or passages of the source.

What is called AC50 is the concentration at which the activity in the assay is half-maximal. Usually Papp stands for the rate of passage across a membrane or cell layer, normalised by area and donor concentration.

Regarding `CC(=O)O[C@H]1[C@H]2O[C@]23[C@@H]2CC[C@@H]4C[C@@H](O)CC[C@]4(C)[C@H]2CC[C@]3(C)[C@H]1c1ccc(=O)oc1` [Cinobufagin], the AC50 in data set [1] (Homo sapiens, Neuron, 48 h, read-out: TNL AC50 (48 h)) is 618 nM; in data set [1] (Homo sapiens, Neuron, read-out: AC50 (neurite outgrowth inhibition)) it was 600 nM; in data set [3], 93 nM. Further, the Papp in the data set “in vitro” stood at 45.4 ×10⁻⁶ cm/s. The “decrease in luminescence intensity of the brain tumor” value in data set [2] is listed as 70%.

Turning to `COc1cc2c(c3oc4cccc(O)c4c(=O)c13)[C@@H]1C=CO[C@@H]1O2` [Sterigmatocystin], the “adverse effects on offspring neurogenesis” value in the data set with offspring neurogenesis is “no adverse effects”. Also, the results for the AC50 in data set [1] (read-out: AC50 (neurite outgrowth inhibition)), in data set [1] (read-out: TNL AC50 (48 h)) and in data set [1] (read-out: TNL AC50 (48 hr)) were 2300 nM, 2320 nM and 2320 nM, respectively. In addition, the “Viability AC50 (48 h)” value in data set [4] is “inactive”. In “in vitro”, this compound returned a Papp of 221 ×10⁻⁶ cm/s. For the same compound, the “PAMPA-BBB Pe” value (PAMPA) was 221 10 × 10^− 6 cm/sec.

Take `CC1=CC(=O)c2c(O)cccc2C1=O` [Plumbagin]: the “inhibition of cortical neurite outgrowth (total neurite length)” value in data set [1] (24 and 48 h treatment, in words) is “inhibited cortical neurite outgrowth”. Moreover, the values for the AC50 in data set [1] (setting [6]), in data set [1] (setting [7]) and in data set [3] were 900 nM, 927 nM and 1320 nM, respectively. Besides, in data set [4] (48 h treatment, in words), the “effect on number of objects” value is on record as “minimal effects”. The apparent permeability (Papp) in the data set “in vitro” (setting [8]) is 68.8 ×10⁻⁶ cm/s. For the same compound, the “PAMPA-BBB Pe” value under setting [9] was 68.8 10 × 10^− 6 cm/sec and the “PAMPA-BBB Pe” value under setting [10] is on record as 69 10^-6 cm/sec.

As for `C/C=C(\C)C(=O)N[C@@H](c1ccccc1)[C@@H](O)C(=O)O[C@H]1C[C@@]2(O)[C@@H](OC(=O)c3ccccc3)[C@@H]3[C@]4(OC(C)=O)CO[C@@H]4C[C@H](O)[C@@]3(C)C(=O)[C@H](OC(C)=O)C(=C1C)C2(C)C` [Cephalomannine], the figures for the AC50 in data set [1] (setting [6]) and in data set [1] (setting [7]) were 700 nM and 688 nM, respectively. The “Viability AC50 (48 h)” value in data set [4] (48 h treatment) is “inactive”. In “in vitro” (setting [8]), the Papp is 78.6 ×10⁻⁶ cm/s. In addition, the “PAMPA-BBB Pe” value under setting [9] is reported as 78.57 10 × 10^− 6 cm/sec and the “PAMPA-BBB Pe” value under setting [10] is 79 10^-6 cm/sec. The “cytotoxicity relative to taxol (less cytotoxic)” value in data set [5] is ~ 35%.

Source of the values: publication PMC11876671, “Investigating blood–brain barrier penetration and neurotoxicity of natural products for central nervous system drug development” (Scientific Reports, 2025).
